Results taken from paper PMC7447632, “Highly functionalized β-lactams and 2-ketopiperazines as TRPM8 antagonists with antiallodynic activity” (Scientific Reports, 2020).
pIC50: −log10 of the molar value.

Key:
[1] = target: T1, rTRPM8 (Rattus norvegicus, UniProt Q8R455); assay: Patch-clamp electrophysiology, whole cell, HEK293 cells expressing rTRPM8; format: cell-based; conditions: for pIC50: Patch-clamp, holding potential -60 mV, read-out: IC50 TRPM8 current blockade; for Hill coefficient n: fit of concentration-response curve, -60 mV
T1 construct: expressed in transfected cells; host or cells: HEK293 (stably transfected)
T1 sequence (Q8R455 whole entry): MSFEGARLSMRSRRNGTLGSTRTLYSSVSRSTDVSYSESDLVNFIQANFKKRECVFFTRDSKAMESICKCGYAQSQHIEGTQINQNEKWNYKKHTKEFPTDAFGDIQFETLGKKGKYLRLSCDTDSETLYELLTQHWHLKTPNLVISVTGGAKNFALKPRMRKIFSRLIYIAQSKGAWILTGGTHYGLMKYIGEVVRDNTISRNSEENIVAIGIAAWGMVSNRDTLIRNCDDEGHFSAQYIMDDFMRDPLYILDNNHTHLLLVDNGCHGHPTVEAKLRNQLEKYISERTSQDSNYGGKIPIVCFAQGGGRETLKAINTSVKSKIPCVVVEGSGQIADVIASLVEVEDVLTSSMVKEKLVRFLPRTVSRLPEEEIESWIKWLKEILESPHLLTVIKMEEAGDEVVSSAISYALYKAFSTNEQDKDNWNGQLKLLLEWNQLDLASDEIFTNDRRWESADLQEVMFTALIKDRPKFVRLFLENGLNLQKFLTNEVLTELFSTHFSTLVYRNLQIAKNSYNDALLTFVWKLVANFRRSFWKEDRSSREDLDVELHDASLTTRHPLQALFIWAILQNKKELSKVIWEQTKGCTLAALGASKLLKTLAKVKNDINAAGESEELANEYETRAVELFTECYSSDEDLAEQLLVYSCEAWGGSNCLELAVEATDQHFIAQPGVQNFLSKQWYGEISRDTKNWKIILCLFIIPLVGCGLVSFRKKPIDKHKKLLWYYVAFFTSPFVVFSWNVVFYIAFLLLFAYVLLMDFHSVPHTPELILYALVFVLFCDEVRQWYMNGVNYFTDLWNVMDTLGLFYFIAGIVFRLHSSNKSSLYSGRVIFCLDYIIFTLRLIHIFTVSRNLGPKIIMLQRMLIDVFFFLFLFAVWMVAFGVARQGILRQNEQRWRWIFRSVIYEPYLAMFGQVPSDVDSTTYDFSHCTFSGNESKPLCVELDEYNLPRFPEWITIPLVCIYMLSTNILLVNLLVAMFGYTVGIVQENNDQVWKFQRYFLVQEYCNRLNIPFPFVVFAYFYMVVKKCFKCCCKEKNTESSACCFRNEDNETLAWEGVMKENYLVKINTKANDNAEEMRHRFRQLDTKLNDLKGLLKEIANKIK
Excerpt: The TRPM8 antagonist activity of the enantiopure β-lactams 24a and 29a was further confirmed electrophysiologically by Patch-clamp experiments, using the whole cell configuration in HEK293 cells expressing TRPM8 channels.
The dose–response curve for both compounds was obtained at a holding potential of -60 mV (Supplementary Fig. S4).
Figure 2 Compounds 24a and 29a block TRPM8-mediated responses evoked by menthol in rTRPM8-expressing HEK293 cells. (A, C). I–V curves obtained in HEK293 cells expressing TRPM8 and exposed to vehicle solution (Vehicle; black trace; A,C), 100 µM menthol (red trace; A,C), 100 µM menthol + 10 µM 24a (blue trace; A) or to 100 µM menthol + 10 µM compound 29a (blue trace; C) (B,D), Concentration − response curves for TRPM8 current blockade by compound 24a (B) or compound 29a (D) at a holding voltage of -60 mV. Peak current data were expressed as pA/pF (to facilitate comparison among cells of different size) and expressed as a function of antagonist concentrations. The solid lines represent fits of the experimental data to the following binding isotherm: y = max/(1 + x/EC50)n, where x is the drug concentration and n the Hill coefficient. The fitted values for n were 0.97 ± 0.05 or 0.98 ± 0.6 for compound 24a or 29a, respectively. Each point is the mean ± SD of 8 (for compound 24a) or 9 (for compound 29a) determinations, each obtained in different cells. TEXT PRINTED IN THE PICTURE: (B) 24a: IC50=1,4±1,1 μM | (D) 29a: IC50=0,8±1,2 μM
Electrophysiological recording was carried out 1–3 days after cells seeded. Membrane currents and voltages were recorded by patch clamp using the whole-cell configuration. For whole-cell recordings of HEK-rTRPM8 cells, pipette solution contained (in mM) 150 NaCl, 5 EGTA, 3 MgCl2 and 10 HEPES, adjusted to pH 7.2 with NaOH, and bath solution contained (in mM) 150 NaCl, 6 CsCl, 1.5 CaCl2, 1 MgCl2, 10 D-glucose and 10 HEPES, adjusted to pH 7.4 with NaOH. Data were sampled at 10 kHz (EPC10 amplifier with PatchMaster 2.53 software, HEKA Electronics, Lambrecht, Germany) and low-pass filtered at 3 kHz for analysis (PatchMaster 2.53 and GraphPad Prism 5, Graphpad Software, USA). The series resistance was < 10 MΩ and to minimize voltage errors was compensated to 60–80%. All measurements were performed at 24–25 °C. The TRPM8 response was quantified as the ratio P2/P1, being P2 the second menthol pulse in the presence of the vehicle or antagonist tested, and P1 refers to the first menthol pulse. This paradigm considers the extend of receptor desensitization as the P2/P1 obtained with the vehicle. Thus, the estimated IC50 values are corrected from receptor desensitization.

[2] = system: MDA-MB-231 (breast adenocarcinoma); assay: SRB cytotoxicity assay, MDA-MB-231; format: cell-based; conditions: 72 h, SRB; for TGI MDA-MB-231: total growth inhibition; for TGI MDA-MB-231 / CC50: unit inferred; for GI50 / CC50: Homo sapiens, MDA-MB-231; for CC50: read-out: LC50 MDA-MB-231
Experimental: Human tumor cell lines used in this study were purchased from the ATCC. A-549 (CCL-185), lung carcinoma; HT-29 (HTB-38), colorectal adenocarcinoma; MDA-MB-231 (HTB-26), breast adenocarcinoma; PSN1, pancreas adenocarcinoma.
All cell lines were maintained in DMEM (Dulbecco’s Modified Eagle's Medium) culture medium supplemented with 10% FBS (Fetal Bovine Serum), 100 Units/mL penicillin/streptomycin at 37 °C, 5% CO2 and 95% humidity.
Triplicate cultures were incubated for 72 h in the presence or absence of test compounds in dose–response curves (10 concentrations, typically ranging from 10 to 0.0026 µg/mL). A colorimetric assay using sulforhodamine B (SRB) was adapted for quantitative measurement of cell growth and cytotoxicity. A more detailed information on this assay is provides in the supplementary information. GI50 is the compound concentration that produces 50% inhibition on cell growth as compared to control cells.
In vitro bioassays for the detection of antitumor activity
The aim of this assay is to evaluate the in vitro cytostatic (ability to delay or arrest tumor cell growth) or cytotoxic (ability to kill tumor cells) activity of the samples […]
Name Nº ATCC Species Tissue Characteristics
A549 CCL-185 human lung lung carcinoma (NSCLC)
HT29 HTB-38 human colon colorectal adenocarcinoma
MDA-MB-231 HTB-26 human breast breast adenocarcinoma
PSN1 CRM-CRL-3211 human pancreas pancreas adenocarcinoma […]
A colorimetric assay, using Sulforhodamine B (SRB) reaction has been adapted to provide a quantitative measurement of cell growth and viability (following the technique described by Skehan et al. J. Natl. Cancer Inst. 1990, 82, 1107-1112 […]
This form of assay employs 96-well cell culture microplates following the standards of the American National Standards Institute and the Society for Laboratory […]
used in this study were obtained from the American Type Culture Collection (ATCC) and derive from different types of human cancer.
A549, HT29, MDA-MB-231 and PSN1 cells were maintained in Dulbecco’s
Modified Eagle Medium (DMEM) supplemented with 10% Fetal Bovine Serum (FBS), 2mM L-glutamine, 100 U/mL penicillin, and 100 U/mL streptomycin at 37 °C, 5% CO2 and 98% humidity. For the experiments, cells were harvested from subconfluent cultures using trypsinization and resuspended in fresh medium before counting and […]
A549, HT29, MDA-MB-231 and PSN1 cells were seeded in 96 well microtiter plates, at 5000 cells per well in aliquots of 150 µL, and allowed to attach to the plate surface for 18 hours (overnight) in drug free medium. After that, one control (untreated) plate of each cell line was fixed (as described below) and used for time zero reference value. Culture plates were then treated with test compounds (50 µL aliquots of 4X stock […]
solutions in complete culture medium plus 4% DMSO) using ten 2/5 serial dilutions (concentrations ranging from 10 to 0.003 µg/mL) and triplicate cultures (1% final concentration in DMSO). After 72 hours treatment, the antitumor effect was measured by using the SRB methodology: Briefly, cells were washed twice with PBS, fixed for 15 min in 1% glutaraldehyde solution at room temperature, rinsed twice in PBS, and stained in 0.4% SRB solution for 30 min at room temperature. Cells were then rinsed several times with 1% acetic acid solution and air-dried at room temperature. SRB was then extracted in 10 mM trizma base solution and the absorbance measured in an automated spectrophotometric plate reader at 490 nm.
Effects on cell growth and survival were estimated by applying the NCI algorithm (Boyd MR and Paull KD. Drug Dev. Res. 1995, 34, 91-109, DOI:10.1002/ddr.430340203). The values obtained in triplicate cultures were fitted by nonlinear regression to a four-parameters logistic curve by nonlinear regression analysis. . Using the absorbance measurements [time zero, (Tz), control growth, (C), and test growth in the presence of drug at the ten concentration levels (Ti)], the […]

| pIC50 ([1]; 100 µM menthol) | Hill coefficient n [1] | Compound | TGI MDA-MB-231 [2] [µM] | GI50 [2] [µM] | CC50 [2] [µM] | Effect on menthol-mediated TRPM8 activity (I-V curve) ([1]; 10 µM compound, 100 µM menthol, +120 mV) |
| --- | --- | --- | --- | --- | --- | --- |
| 6.10 | 0.98 ± 0.6 | C[C@@H]1C(=O)N(C[C@@H](Cc2ccccc2)NC(=O)OCc2ccccc2)[C@]1(Cc1ccccc1)C(=O)OCc1ccccc1 [Compound 29a, 4S-Benzyl-4-benzyloxycarbonyl-3S-methyl-1-[(2′R-benzyloxycarbonylamino-3′-phenyl)prop-1′-yl]-2-oxoazetidine] | > 17.3 | 12.7 | > 17.3 |  |
| 5.85 | 0.97 ± 0.05 | C[C@@H]1C(=O)N(C[C@H](Cc2ccccc2)NC(=O)OCc2ccccc2)[C@]1(Cc1ccccc1)C(=O)OCc1ccccc1 [Compound 24a, 4S-Benzyl-4-benzyloxycarbonyl-3S-methyl-1-[(2′S-benzyloxycarbonylamino-3′-phenyl)prop-1′-yl]-2-oxoazetidine] | > 17.3 | > 17.3 | > 17.3 | important reduction on the menthol-mediated TRPM8 activity |
